Results from US11186576B2, “Pyrazolo[1,5-A][1,3,5]triazine and pyrazolo[1,5-A]pyrimidine derivatives as CDK inhibitors” (Aurigene Discovery Technologies Limited, priority 2015, dated 2021).

What was measured:
[1] = target: CDK7/CycH/MNAT1 (Homo sapiens (Human), UniProt P50613); experiment: Biochemical assay for CDK7 (TR-FRET kinase assay); details: 60 min pre-incubation, 1 mM ATP; for inhibition at 10 µM: read-out: % inhibition @ 10 μM; for IC50: read-out: IC50
In short: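 CDK7/CycH/MNAT1 (5 nM) was preincubated with compound for 60 min at room temperature, then reacted for 60 min with 100 nM ULight-MBP and 1 mM ATP in 1% DMSO. Irreversibility was probed with 20, 60 and 180 min preincubations.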

[2] = tested on: RNA polymerase II CTD phosphorylation (MDA-MB-231/NCI-H358 cells); experiment: Inhibition of RNA polymerase II CTD phosphorylation in cell western assay; format: cell-based; details: 4 hours incubation, phospho RNA Pol II Ser-5 or Ser-2
Procedure: 25000 cells (MDA-MB-231/NCI-H358) were seeded in 96 well black clear bottom plate incubated for overnight before addition of selected compound. 3 fold dilutions of selected compound diluted in DMSO starting from 10 μM, added to cells and incubated for 4 hours at 37° C., 5% CO2 incubator. Cells were washed once with 100 μl of phosphate buffered saline (sigma #P3813), then fixed with 100 μl/well of 4% Para formaldehyde for 60 min at room temperature, in dark. The cells were washed 3 times with 100 μl of wash buffer (PBS with 0.1% Triton-X-100), later blocked for 2 hours at room temperature in blocking buffer (5% BSA in PBST). Cells were stained overnight at 4° C. with Phospho RNA Pol II (S5) (Millipore #04-1572, Abcam #5131) or Phospho RNA Pol II (Ser-2), antibody (Bethyl labs #A300-654-A) in blocking buffer. Post incubation cells were washed with Delifia wash buffer (Perkin Elmer #4010-0010). Cells were treated with LANCE secondary antibodies (LANCE® Eu-W1024 perkin elmer #AD-0076 for phospho Ser-5 CTD RNA pol-II and Delfia Eu-N1 anti rabbit IgG Perkin elmer #AD0106 for phospho Ser-2 CTD RNA pol-II) for 2 hours in assay buffer (Perkin Elmer #1244-111), Cells were washed 3 times with Delfia wash buffer post incubation, Enhancement solution (Perkin Elmer #1244-105) added and incubated for 20 mins. Europium readings were taken in Victor-3 instrument. Cell normalization was done using Hoechst dye (0.5 μg/ml).
Selected compounds were screened in the above mentioned assay procedure. The EC50 values are summarised in the below table; wherein group “A” refers to an EC50 value of less than or equal to 1 μM, group “B” refers to EC50 value in range of 1 to 10 μM and group “C” refers to EC50 value of greater than 10 μM.

Sequence of CDK7/CycH/MNAT1 (P50613 whole entry): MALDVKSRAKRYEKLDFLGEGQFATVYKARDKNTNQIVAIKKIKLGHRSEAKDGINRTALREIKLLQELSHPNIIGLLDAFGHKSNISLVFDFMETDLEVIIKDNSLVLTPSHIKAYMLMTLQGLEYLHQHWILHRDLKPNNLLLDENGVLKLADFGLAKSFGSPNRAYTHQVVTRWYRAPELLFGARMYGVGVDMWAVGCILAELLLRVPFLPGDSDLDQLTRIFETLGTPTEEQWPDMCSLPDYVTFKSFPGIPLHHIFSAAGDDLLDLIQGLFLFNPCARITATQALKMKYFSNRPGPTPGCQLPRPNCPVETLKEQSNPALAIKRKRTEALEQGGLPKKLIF
Sequence of CDK7/CycH/MNAT1 (P51946 whole entry partner): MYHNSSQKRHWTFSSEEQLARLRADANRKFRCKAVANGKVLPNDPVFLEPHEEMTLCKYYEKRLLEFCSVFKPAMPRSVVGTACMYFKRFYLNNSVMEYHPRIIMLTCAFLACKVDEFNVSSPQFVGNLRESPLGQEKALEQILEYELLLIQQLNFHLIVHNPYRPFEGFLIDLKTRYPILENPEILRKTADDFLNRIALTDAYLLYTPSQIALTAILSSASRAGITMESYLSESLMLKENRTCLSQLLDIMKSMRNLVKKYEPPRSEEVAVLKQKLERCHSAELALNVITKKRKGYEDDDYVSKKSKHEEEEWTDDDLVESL
Sequence of CDK7/CycH/MNAT1 (P51948 whole entry partner): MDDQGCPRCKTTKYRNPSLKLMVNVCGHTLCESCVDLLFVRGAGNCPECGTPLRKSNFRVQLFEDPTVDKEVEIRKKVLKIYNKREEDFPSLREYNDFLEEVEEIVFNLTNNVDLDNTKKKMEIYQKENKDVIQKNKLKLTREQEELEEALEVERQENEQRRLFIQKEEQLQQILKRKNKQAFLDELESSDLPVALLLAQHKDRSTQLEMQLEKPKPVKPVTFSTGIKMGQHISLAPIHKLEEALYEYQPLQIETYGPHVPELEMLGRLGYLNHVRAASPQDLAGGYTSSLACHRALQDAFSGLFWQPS

Row | SMILES | inhibition at 10 µM ([1]; 10 μM compound) | IC50 [1] | EC50 [2] | % inhibition @ 10 μM ([1]; 10 μM compound)
1 | C=CC(=O)N1CCC(C(=O)Nc2cccc(CNc3nc(OC4CCNCC4)nc4c(C(C)C)cnn34)c2)CC1 [Compound 106, 1-acryloyl-N-(3-(((8-isopropyl-2-(piperidin-4-yloxy)pyrazolo[1,5-a][1,3,5]triazin-4-yl)amino)methyl)phenyl)piperidine-4-carboxamide] | 91% | > 1000 nM | 1000 to 10000 nM | 
2 | C=CC(=O)N[C@H]1CC[C@@H](C(=O)Nc2cccc(CNc3nc(OC4CCN(C)C4)nc4c(C(C)C)cnn34)c2)CC1 (stereo partly drawn) [Compound 101, (1,4-cis)-4-acrylamido-N-(3-(((8-isopropyl-2-((1-methylpyrrolidin-3-yl)oxy)pyrazolo[1,5-a][1,3,5]triazin-4-yl)amino)methyl)phenyl)cyclohexane-1-carboxamide] | 96% | < 300 nM | 1000 to 10000 nM | 
3 | C=CC(=O)N1CC[C@H]1C(=O)Nc1cccc(CNc2nc(NC3CCOCC3)nc3c(C(C)C)cnn23)c1 [Compound 20, (S)-1-acryloyl-N-(3-(((8-isopropyl-2-((tetrahydro-2H-pyran-4-yl)amino)pyrazolo[1,5-a][1,3,5]triazin-4-yl)amino)methyl)phenyl)azetidine-2-carboxamide] | 100% | < 300 nM | ≤ 1000 nM | 
4 | C=CC(=O)NC1(C(=O)Nc2cccc(CNc3nc(NC4CCOCC4)nc4c(C(C)C)cnn34)c2)CC1 [Compound 83, 1-acrylamido-N-(3-(((8-isopropyl-2-((tetrahydro-2H-pyran-4-yl)amino)pyrazolo[1,5-a][1,3,5]triazin-4-yl)amino)methyl)phenyl)cyclopropane-1-carboxamide] | 96% | < 300 nM | ≤ 1000 nM | 
5 | C=CC(=O)N1CC(C(=O)Nc2cccc(CNc3nc(NC4CCOCC4)nc4c(C(C)C)cnn34)c2)C1 [Compound 18, 1-acryloyl-N-(3-(((8-isopropyl-2-((tetrahydro-2H-pyran-4-yl)amino)pyrazolo[1,5-a][1,3,5]triazin-4-yl)amino)methyl)phenyl)azetidine-3-carboxamide] | 101% | < 300 nM | ≤ 1000 nM | 
6 | CC(C)c1cnn2c(NCc3cccc(NC(=O)C4CCN(C(=O)/C=C/CN(C)C)C4)c3)nc(NC3CCOCC3)nc12 (centres unmarked) [Compound 69, (E)-1-(4-(dimethylamino)but-2-enoyl)-N-(3-(((8-isopropyl-2-((tetrahydro-2H-pyran-4-yl)amino)pyrazolo[1,5-a][1,3,5]triazin-4-yl)amino)methyl)phenyl)pyrrolidine-3-carboxamide] | 98% | < 300 nM | 1000 to 10000 nM | 
7 | C=CC(=O)N1CCOCC1C(=O)Nc1cccc(CNc2nc(NC3CCOCC3)nc3c(C(C)C)cnn23)c1 (centres unmarked) [Compound 24, 4-acryloyl-N-(3-(((8-isopropyl-2-((tetrahydro-2H-pyran-4-yl)amino)pyrazolo[1,5-a][1,3,5]triazin-4-yl)amino)methyl)phenyl)morpholine-3-carboxamide] | 98% | < 300 nM | ≤ 1000 nM | 
8 | C=CC(=O)N1CCC(C(=O)Nc2cccc(CNc3nc(NC4CCCC(N)C4)nc4c(C(C)C)cnn34)c2)C1 (centres unmarked) [Compound 15, 1-acryloyl-N-(3-(((2-((3-aminocyclohexyl)amino)-8-isopropylpyrazolo[1,5-a][1,3,5]triazin-4-yl)amino)methyl)phenyl)pyrrolidine-3-carboxamide] | 98% | < 300 nM | > 10000 nM | 
9 | C=CC(=O)Nc1ccc(C(=O)Nc2cccc(Nc3nc(OC4CCN(C)CC4)nc4c(C(C)C)cnn34)c2)cc1 [Compound 125, 4-acrylamido-N-(3-((8-isopropyl-2-((1-methylpiperidin-4-yl)oxy)pyrazolo[1,5-a][1,3,5]triazin-4-yl)amino)phenyl)benzamide] | 86% | < 300 nM | ≤ 1000 nM | 
10 | CC(C)c1cnn2c(Nc3cccc(NC(=O)C4CCC(NC(=O)/C=C/CN(C)C)CC4)c3)nc(OC3CCN(C)CC3)nc12 (centres unmarked) [Compound 131, (1s,4s)-4-((E)-4-(dimethylamino)but-2-enamido)-N-(3-((8-isopropyl-2-((1-methylpiperidin-4-yl)oxy)pyrazolo[1,5-a][1,3,5]triazin-4-yl)amino)phenyl)cyclohexane-1-carboxamide] | 86% | 300 to 1000 nM | > 10000 nM | 
11 | C=CC(=O)N1CCC1C(=O)Nc1cccc(CNc2nc(NC3CCOCC3)nc3c(C(C)C)cnn23)c1 (centres unmarked) [Compound 2, 1-acryloyl-N-(3-(((8-isopropyl-2-((tetrahydro-2H-pyran-4-yl)amino)pyrazolo[1,5-a][1,3,5]triazin-4-yl)amino)methyl)phenyl)azetidine-2-carboxamide] | 98% | < 300 nM | ≤ 1000 nM | 
12 | C=CC(=O)N1CCC(C(=O)Nc2cccc(CNc3nc(NC4CCOCC4)nc4c(C(C)C)cnn34)c2)C1 (single isomer, unassigned) [Compound 6, 1-acryloyl-N-(3-(((8-isopropyl-2-((tetrahydro-2H-pyran-4-yl)amino)pyrazolo[1,5-a][1,3,5]triazin-4-yl)amino)methyl)phenyl)pyrrolidine-3-carboxamide] |  | < 300 nM | 1000 to 10000 nM | 91%
13 | C=CC(=O)N1CCC(C(=O)Nc2cccc(CNc3nc(OCCCCN)nc4c(C(C)C)cnn34)c2)CC1 [Compound 107, 1-acryloyl-N-(3-(((2-(4-aminobutoxy)-8-isopropylpyrazolo[1,5-a][1,3,5]triazin-4-yl)amino)methyl)phenyl)piperidine-4-carboxamide] | 95% | < 300 nM | 1000 to 10000 nM | 
14 | C=CC(=O)N[C@H]1CC[C@@H](C(=O)Nc2cccc(CNc3nc(NC4CCOCC4)nc4c(C(C)C)cnn34)c2F)CC1 [Compound 38, (1,4-cis)-4-acrylamido-N-(2-fluoro-3-(((8-isopropyl-2-((tetrahydro-2H-pyran-4-yl)amino)pyrazolo[1,5-a][1,3,5]triazin-4-yl)amino)methyl)phenyl)cyclohexane-1-carboxamide] | 95% | < 300 nM | 1000 to 10000 nM | 
15 | CC(C)c1cnn2c(Nc3cccc(C(=O)NC4CCN(C(=O)/C=C/CN(C)C)CC4)c3)nc(OC3CCN(C)CC3)nc12 [Compound 134, (E)-N-(1-(4-(dimethylamino)but-2-enoyl)piperidin-4-yl)-3-((8-isopropyl-2-((1-methylpiperidin-4-yl)oxy)pyrazolo[1,5-a][1,3,5]triazin-4-yl)amino)benzamide] | 97% | < 300 nM | 1000 to 10000 nM | 
16 | C=CC(=O)N1CCC(NC(=O)c2cccc(Nc3nc(OC4CCN(C)CC4)nc4c(C(C)C)cnn34)c2)CC1 [Compound 128, N-(1-acryloylpiperidin-4-yl)-3-((8-isopropyl-2-((1-methylpiperidin-4-yl)oxy)pyrazolo[1,5-a][1,3,5]triazin-4-yl)amino)benzamide] | 93% | < 300 nM | 1000 to 10000 nM | 
17 | C=CC(=O)N1CCC1C(=O)Nc1cccc(CNc2nc(OC3CCN(C)CC3)nc3c(C(C)C)cnn23)c1 (centres unmarked) [Compound 94, 1-acryloyl-N-(3-(((8-isopropyl-2-((1-methylpiperidin-4-yl)oxy)pyrazolo[1,5-a][1,3,5]triazin-4-yl)amino)methyl)phenyl)azetidine-2-carboxamide] | 99% | < 300 nM | ≤ 1000 nM | 
18 | CC(C)c1cnn2c(NCc3cccc(NC(=O)/C=C/CN(C)C)c3)nc(NC3CCOCC3)nc12 [Compound 53, (E)-4-(dimethylamino)-N-(3-(((8-isopropyl-2-((tetrahydro-2H-pyran-4-yl)amino)pyrazolo[1,5-a][1,3,5]triazin-4-yl)amino)methyl)phenyl)but-2-enamide] | 99% | < 300 nM |  | 
19 | C=CC(=O)Nc1cc(C(=O)Nc2cccc(CNc3nc(NC4CCOCC4)nc4c(C(C)C)cnn34)c2)ccc1C [Compound 40A, 3-acrylamido-N-(3-(((8-isopropyl-2-((tetrahydro-2H-pyran-4-yl)amino)pyrazolo[1,5-a][1,3,5]triazin-4-yl)amino)methyl)phenyl)-4-methylbenzamide] |  | < 300 nM |  | 
20 | CC(C)c1cnn2c(NC(C)c3cccc(NC(=O)C4CCCN(C(=O)/C=C/CN(C)C)C4)c3)nc(NC3CCOCC3)nc12 (centres unmarked) [Compound 72, (E)-1-(4-(dimethylamino)but-2-enoyl)-N-(3-(1-((8-isopropyl-2-((tetrahydro-2H-pyran-4-yl)amino)pyrazolo[1,5-a][1,3,5]triazin-4-yl)amino)ethyl)phenyl)piperidine-3-carboxamide] | 84% | 300 to 1000 nM |  | 
